Measurements as given in patent US7749730B2, “High throughput screening assay for the TRPM5 ion channel” (Redpoint Bio Corporation, priority 2005, dated 2010).

Assays:
Assay type in all cases: cell-based
[1] = test system: agonist-induced Ca++ flux response; test: Ca++ flux assay (Calcium 3 Dye)
Protocol: (§1) The ideal blocker would block TRPM5 but not other channels. The TRPM5 assay is conducted as described in Example 3, utilizing a membrane potential dye. A test compound is added, and the cells are then stimulated with ATP to trigger the channel, leading to a dye response. The process is shown schematically in FIG. 7. The KCl counterscreen is performed as described in Example 3, with identical cells, pretreated with the same compound, but the stimulus was 20 mM KCl, not ATP. KCl stimulated and unstimulated responses are used as controls. […] An additional specificity assay utilizes a Ca++ flux dye (Calcium 3 Dye, Part No. R8091) to determine whether or not the compound interferes with agonist-induced Ca++ flux response.

[2] = target: T1, TRPM5 (Homo sapiens, UniProt Q9NZQ8); test: TRPM5 membrane potential dye assay (FLIPR), cells stimulated with ATP; design: the full length hTRPM5 was amplified by PCR using GC Melt; expressed in transfected cells; conditions: ATP stimulus
T1 sequence (Q9NZQ8 1-1165): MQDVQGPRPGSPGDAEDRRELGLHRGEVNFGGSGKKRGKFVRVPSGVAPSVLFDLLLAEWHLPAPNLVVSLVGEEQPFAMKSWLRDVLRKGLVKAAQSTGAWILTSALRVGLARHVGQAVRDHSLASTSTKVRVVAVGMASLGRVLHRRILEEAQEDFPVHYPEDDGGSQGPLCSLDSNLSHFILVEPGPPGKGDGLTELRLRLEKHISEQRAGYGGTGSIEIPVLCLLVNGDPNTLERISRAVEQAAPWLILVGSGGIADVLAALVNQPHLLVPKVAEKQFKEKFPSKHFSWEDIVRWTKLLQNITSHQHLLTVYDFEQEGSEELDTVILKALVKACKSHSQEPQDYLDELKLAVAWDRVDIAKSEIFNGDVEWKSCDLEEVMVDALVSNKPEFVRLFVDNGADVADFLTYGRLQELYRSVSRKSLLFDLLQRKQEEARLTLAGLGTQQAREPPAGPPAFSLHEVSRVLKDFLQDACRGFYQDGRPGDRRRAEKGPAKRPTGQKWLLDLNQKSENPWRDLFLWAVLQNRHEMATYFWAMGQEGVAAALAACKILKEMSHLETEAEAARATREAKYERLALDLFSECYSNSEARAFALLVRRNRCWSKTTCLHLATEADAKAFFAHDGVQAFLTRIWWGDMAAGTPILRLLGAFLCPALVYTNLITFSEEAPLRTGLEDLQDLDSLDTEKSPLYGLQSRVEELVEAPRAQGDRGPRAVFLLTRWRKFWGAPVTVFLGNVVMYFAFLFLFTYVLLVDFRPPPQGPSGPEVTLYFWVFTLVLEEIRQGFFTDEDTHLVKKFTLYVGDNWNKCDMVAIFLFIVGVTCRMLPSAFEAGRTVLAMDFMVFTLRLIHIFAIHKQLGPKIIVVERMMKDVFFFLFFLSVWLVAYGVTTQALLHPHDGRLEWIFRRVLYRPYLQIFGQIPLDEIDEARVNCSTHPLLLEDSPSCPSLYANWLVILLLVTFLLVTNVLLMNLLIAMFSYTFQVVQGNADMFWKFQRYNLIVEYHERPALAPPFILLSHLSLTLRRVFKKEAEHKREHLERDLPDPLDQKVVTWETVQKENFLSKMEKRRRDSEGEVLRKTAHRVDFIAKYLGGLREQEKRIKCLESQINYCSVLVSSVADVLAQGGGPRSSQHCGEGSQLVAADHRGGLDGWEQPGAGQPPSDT
Protocol: TRPM5 stably expressed in HEK cells was analyzed for its ability to respond to different concentrations of several GPCR agonists. The assay was performed on a FLIPR® using the excitation 510-545 nm and emission 565-625 nm filter sets. Assay plates containing stably expressing HEK cells were loaded with 1× Membrane Potential Assay Dye Red (Molecular Devices) for one hour in a 37° C. and 5% CO2 incubator. The plates were then removed from the incubator and equilibrated to room temperature for 15 minutes before reading on the FLIPR®. The plates were read on the FLIPR® for a total of 3 minutes. Baseline fluorescence was obtained on the FLIPR® for 10 seconds followed by addition of each agonist by the FLIPR® and read for an additional 2 minutes and 50 seconds. […] The values on the graph represent the difference in the maximum minus the minimum fluorescence upon agonist addition. Individual clones are represented by clone number, while the pool of clones represents the sum of all cells that were resistant to selection. In all cases, clone 1 gave the strongest response to all 3 agonists (ATP, carbachol, and thrombin peptide, FIGS. 5A-5C, respectively). Clone 5 and pooled clones generated a lower response in comparison to clone 1. However, both the clone 5 and pool responses were a minimum 3-fold higher than fluorescence in non-transfected cells.
Specificity of potential activating compounds may be identified using suboptimal concentrations of agents that increase intracellular calcium levels. In this type of assay, rather than using a high concentration of, for example carbachol, a reduced concentration is added to TRPM5-expressing cells with or without an additional test compound. Enhancers of TRPM5 activity are those test compounds that increase the fluorescent intensity in reduced carbachol treated cells, to the level seen in cells treated to a high dose.
A carbachol dose response curve was generated for the TRPM5 expressing cells so that the suboptimal concentration range could be determined. […]

[3] = test system: KCl response; test: KCl counterscreen (membrane potential dye, 20 mM KCl stimulus); conditions: TRPM5-expressing cells
Protocol: KCl activates a number of ion channels, but not TRPM5. Therefore, KCl can be used as a counterscreen to identify modulating compounds specific for TRPM5.
as §1

[4] = target: T1, TRPM5; test: Membrane potential assay in transiently TRPM5-transfected HEK 293 cells (FLEXstation); design: the full length hTRPM5 was amplified by PCR using GC Melt; expressed in transfected cells; host or cells: HEK 293 (ATCC), transient transfection with Lipofectamine 2000; conditions: for TRPM5 response to agonist (relative fluorescence): within the first 30 seconds of agonist addition, FMP dye
Protocol: As described in greater detail below, HEK 293 cells, transiently transfected with a plasmid bearing the human TRPM5 gene, were used to develop the high throughput screening assay. Indirect measurement of the changes in Na^+ ions within the HEK 293 cells were made using a FMP dye and stimulation of the cells using calcium activating agents.
1.0×10^6 HEK 293 cells (ATCC) were plated in each well of a 6-well tissue culture dish overnight. The following day, cells were transfected with 4 μg of a pcDNA3.2 vector containing TRPM5 cDNA and 8 μl of Lipofectamine 2000 (Invitrogen), according to the manufacturer's protocol, and incubated overnight. The following day, transfected cells were trypsinized and seeded into 96-well black, clear bottom, poly-D-lysine plates (Corning) at a density of 70,000 cells/well in a 100 μl volume and incubated in a 37° C./5% CO2 incubator overnight.
Once the expression of TRPM5 was confirmed in the HEK cells, 100 μl of the Blue or Red FMP dye (Molecular Devices) was added to each well of plates seeded with the transiently transfected cells. The plate was then incubated in a 37° C./5% CO2 incubator for 1 hour. The plate was read in a FLEXStation microplate reader (Molecular Devices) with an excitation of 530 nm and an emission of 565 nm. The fluorescence was monitored for 3 minutes upon exposure of the cells to a calcium activating agent (carbachol, thrombin peptide or ATP).

Compound	effect on Ca++ flux response [1]	inhibition of the TRPM5 response [2]	effect on KCl response [3]	fluorescence over background ([4]; versus mock treated cells)	TRPM5 response to agonist (relative fluorescence) [4]
O=c1[nH]c(SCc2ccccc2)nc(O)c1C(c1ccccc1)c1ccccc1 [Compound F0013488,C13]	activates the Ca++ flux response	inhibits TRPM5			
NC1C(=O)/C(=C\c2cc([N+](=O)[O-])cc([N+](=O)[O-])c2O)SC1=S (centres unmarked) [Compound F001344,A3]		inhibits TRPM5	inhibits TRPM5, but also the KCl responses		
thrombin				greater than 4 fold	strong spike in relative fluorescence
C[N+](C)(C)CCOC(N)=O [carbachol]					strong spike in relative fluorescence
C=CCOc1ccc(/C=N/NC(=O)CSCc2cccc(Br)c2)cc1OC [compound 1]	does not alter KCl or Ca++ responses	dose responsive inhibition of the TRPM5 response	does not alter KCl or Ca++ responses		
Nc1ncnc2c1ncn2[C@@H]1O[C@H](COP(=O)(O)OP(=O)(O)OP(=O)(O)O)[C@@H](O)[C@H]1O [ATP, adenosine triphosphate]					strong spike in relative fluorescence
